# Laboratory results from ChEMBL document CHEMBL3872201, “Synthesis and antiproliferative activity of a natural like glycoconjugate polycyclic compound” (2016).
# Activity calls are given as the source filed them. The calls are words filed in the database; no cut-off is given here.
# Legend:
# MDA-MB-231 [1] = test: Effect on cell cycle regulatory protein in human MDA-MB-231 cells assessed as cdc2 level at 10 uM after 24 hrs by Western blot analysis relative to control; assay type: functional
# [2] = Antiproliferative activity against human HOP92 cells after 48 hrs by sulforhodamine B assay; assay type: functional; details: HOP-92, 48 h
# [3] = Cell cycle arrest in human MDA-MB-231 cells assessed as accumulation at G2/M phase at 10 uM after 72 hrs by propidium iodide staining based flow cytometric analysis (reference value: 19.7%); assay type: functional
# [4] = Antiproliferative activity against human 786-0 cells after 48 hrs by sulforhodamine B assay; assay type: functional; details: 786-0, 48 h
# [5] = Cell cycle arrest in human MDA-MB-231 cells assessed as accumulation at G0/G1 phase at 5 uM after 48 hrs by propidium iodide staining based flow cytometric analysis (reference value: 67%); assay type: functional
# [6] = Antiproliferative activity against human K562 cells after 48 hrs by sulforhodamine B assay; assay type: functional; details: K562, 48 h
# [7] = Cell cycle arrest in human MDA-MB-231 cells assessed as accumulation at subG0/G1 phase at 5 uM after 72 hrs by propidium iodide staining based flow cytometric analysis (reference value: 6.3%); assay type: functional
# [8] = Antiproliferative activity against human BT549 cells after 48 hrs by sulforhodamine B assay; assay type: functional; details: BT-549, 48 h
# [9] = Antiproliferative activity against human NCI-H522 cells after 48 hrs by sulforhodamine B assay; assay type: functional; details: NCI-H522, 48 h
# [10] = Antiproliferative activity against human SW620 cells after 48 hrs by sulforhodamine B assay; assay type: functional; details: SW-620, 48 h
# [11] = Antiproliferative activity against human HCT116 cells after 48 hrs by sulforhodamine B assay; assay type: functional; details: HCT-116, 48 h
# MDA-MB-231 [12] = test: Effect on cell cycle regulatory protein in human MDA-MB-231 cells assessed as cyclin B1 level at 5 uM after 48 hrs by Western blot analysis relative to control; assay type: functional
# MDA-MB-231 [13] = test: Cytotoxicity against human MDA-MB-231 cells assessed as reduction in cell number at 5 to 10 uM after 24 to 72 hrs by light microscopic analysis; assay type: functional, cell-based
# [14] = Antiproliferative activity against human NCI-ADR-RES cells after 48 hrs by sulforhodamine B assay; assay type: functional
# [15] = Cell cycle arrest in human MDA-MB-231 cells assessed as accumulation at G0/G1 phase at 5 uM after 24 hrs by propidium iodide staining based flow cytometric analysis (reference value: 66.5%); assay type: functional
# [16] = Antiproliferative activity against human HCC2998 cells after 48 hrs by sulforhodamine B assay; assay type: functional; details: HCC 2998, 48 h
# [17] = Antiproliferative activity against human M14 cells after 48 hrs by sulforhodamine B assay; assay type: functional; details: M14, 48 h
# [18] = Antiproliferative activity against human A549/ATCC cells after 48 hrs by sulforhodamine B assay; assay type: functional; details: A549, 48 h
# [19] = Cell cycle arrest in human MDA-MB-231 cells assessed as accumulation at G2/M phase at 5 uM after 24 hrs by propidium iodide staining based flow cytometric analysis (reference value: 20.4%); assay type: functional
# [20] = Antiproliferative activity against human HT-29 cells after 48 hrs by sulforhodamine B assay; assay type: functional; details: HT-29, 48 h
# [21] = Antiproliferative activity against human SF539 cells after 48 hrs by sulforhodamine B assay; assay type: functional; details: SF-539, 48 h
# MDA-MB-231 [22] = test: Effect on cell cycle regulatory protein in human MDA-MB-231 cells assessed as cdc2 level at 10 uM after 48 hrs by Western blot analysis relative to control; assay type: functional
# [23] = Antiproliferative activity against human NCI-H23 cells after 48 hrs by sulforhodamine B assay; assay type: functional; details: NCI-H23, 48 h
# [24] = Antiproliferative activity against human MALME-3M cells after 48 hrs by sulforhodamine B assay; assay type: functional
# MDA-MB-231 [25] = test: Effect on cell cycle regulatory protein in human MDA-MB-231 cells assessed as cyclin B1 level at 10 uM after 24 hrs by Western blot analysis relative to control; assay type: functional
# MDA-MB-231 [26] = test: Effect on cell cycle regulatory protein in human MDA-MB-231 cells assessed as cdc2 level at 5 uM after 24 hrs by Western blot analysis relative to control; assay type: functional
# [27] = Antiproliferative activity against human RPMI8226 cells after 48 hrs by sulforhodamine B assay; assay type: functional; details: RPMI-8226, 48 h
# [28] = Antiproliferative activity against human PC3 cells after 48 hrs by sulforhodamine B assay; assay type: functional; details: PC-3, 48 h
# [29] = Antiproliferative activity against human SN12C cells after 48 hrs by sulforhodamine B assay; assay type: functional
# [30] = Antiproliferative activity against human U251 cells after 48 hrs by sulforhodamine B assay; assay type: functional; details: U-251, 48 h
# [31] = Antiproliferative activity against human IGROV1 cells after 48 hrs by sulforhodamine B assay; assay type: functional; details: IGROV-1, 48 h
# [32] = Cell cycle arrest in human MDA-MB-231 cells assessed as accumulation at G2/M phase at 5 uM after 48 hrs by propidium iodide staining based flow cytometric analysis (reference value: 19.5%); assay type: functional
# [33] = Antiproliferative activity against human OVCAR5 cells after 48 hrs by sulforhodamine B assay; assay type: functional; details: OVCAR-5, 48 h
# [34] = Antiproliferative activity against human CCRF-CEM cells after 48 hrs by sulforhodamine B assay; assay type: functional
# [35] = Cell cycle arrest in human MDA-MB-231 cells assessed as accumulation at subG0/G1 phase at 10 uM after 48 hrs by propidium iodide staining based flow cytometric analysis (reference value: 8.8%); assay type: functional
# [36] = read-out: LC50 (the source's name)
smiles,measurement,setting,value
C=C1c2c(C)nn(-c3ccc(C#CCO[C@@H]4O[C@H](CO)[C@@H](O)[C@H](O)[C@H]4O)cc3)c2N(C)C23CC1C1(C)c4c(C)nn(-c5ccc(C#CCO[C@@H]6O[C@H](CO)[C@@H](O)[C@H](O)[C@H]6O)cc5)c4N(C)C(C)(CC12)C3 (stereo partly drawn),fold change (FC),MDA-MB-231 [1],0.8
same,GI50,[2],0.43 µM
same,TGI,[2],2.52 µM
same,CC50,[2]; [36],8.63 µM
same,Activity,[3],31.1%
same,GI50,[4],2.66 µM
same,TGI,[4],7.78 µM
same,CC50,[4]; [36],29.6 µM
same,Activity,[5],64.3%
same,GI50,[6],1.89 µM
same,TGI,[6],6.75 µM
same,CC50,[6]; [36],> 100 µM
same,Activity,[7],4%
same,GI50,[8],1.3 µM
same,TGI,[8],2.97 µM
same,CC50,[8]; [36],6.77 µM
same,GI50,[9],1.67 µM
same,TGI,[9],3.26 µM
same,CC50,[9]; [36],6.37 µM
same,GI50,[10],1.72 µM
same,TGI,[10],3.77 µM
same,CC50,[10]; [36],8.29 µM
same,GI50,[11],1.27 µM
same,TGI,[11],2.97 µM
same,fold change (FC),MDA-MB-231 [12],1
same,Activity,MDA-MB-231 [13],Active
same,GI50,[14],5.43 µM
same,TGI,[14],47 µM
same,CC50,[14]; [36],100 µM
same,Activity,[15],56.9%
same,GI50,[16],1.57 µM
same,TGI,[16],3.15 µM
same,CC50,[16]; [36],6.32 µM
same,GI50,[17],1.67 µM
same,TGI,[17],3.44 µM
same,CC50,[17]; [36],7.06 µM
same,GI50,[18],1.68 µM
same,TGI,[18],4.09 µM
same,CC50,[18]; [36],9.98 µM
same,Activity,[19],24.4%
same,GI50,[20],1.63 µM
same,TGI,[20],4.21 µM
same,CC50,[20]; [36],16.1 µM
same,GI50,[21],1.78 µM
same,TGI,[21],3.33 µM
same,CC50,[21]; [36],6.22 µM
same,fold change (FC),MDA-MB-231 [22],0.3
same,GI50,[23],2.33 µM
same,TGI,[23],6.59 µM
same,CC50,[23]; [36],100 µM
same,GI50,[24],1.87 µM
same,TGI,[24],3.66 µM
same,CC50,[24]; [36],7.17 µM
same,fold change (FC),MDA-MB-231 [25],0.7
same,fold change (FC),MDA-MB-231 [26],0.9
same,GI50,[27],0.29 µM
same,TGI,[27],1.72 µM
same,CC50,[27]; [36],100 µM
same,GI50,[28],0.7 µM
same,TGI,[28],2.56 µM
same,CC50,[28]; [36],7.79 µM
same,GI50,[29],1.38 µM
same,TGI,[29],3.72 µM
same,CC50,[29]; [36],9.99 µM
same,GI50,[30],1.19 µM
same,TGI,[30],2.59 µM
same,CC50,[30]; [36],5.61 µM
same,GI50,[31],1.56 µM
same,TGI,[31],3.95 µM
same,CC50,[31]; [36],10.1 µM
same,Activity,[32],30.6%
same,GI50,[33],1.78 µM
same,TGI,[33],3.54 µM
same,CC50,[33]; [36],7.05 µM
same,GI50,[34],1.04 µM
same,TGI,[34],5.03 µM
same,CC50,[34]; [36],> 100 µM
same,Activity,[35],4.6%
